{"source": "patent US6552014B2", "about": "“Methods of inhibiting platelet activation with selective serotonin reuptake inhibitors” (HeartDrug Research, L.L.C., priority 1999, dated 2003)", "experiment_in_all_cases": "Flow cytometry of platelet antigen expression, platelet rich plasma", "type_in_all_cases": "cell-based, human", "details_in_all_cases": "PRP", "key": {"[1]": {"test_system": "CPIa-IIa", "description": "(§1) For ex vivo assessment of the SSRIs effect on a PAM, a level of a PAM can be assessed by flow cytometry by first obtaining a sample that comprises platelets and then contacting the sample with a platelet activation agonist, such as phorbol myristate acetate (PMA), ADP (adenosine diphosphate), thrombin, collagen, and/or TRAP (thrombin receptor activating peptide), under conditions suitable for activation of platelets in the sample. The sample is in contact with the agonist preferably for a period of time effective to maximally activate the platelets. […] NDMS at 31.1, 64.1 or 143 ng./ml). Then one contacts or stains the samples with a composition that comprises an anti-PAM antibody e.g., having a fluorescent label, preferably in an amount in excess of that required to bind the PAM expressed on the platelets, under conditions suitable for the formation of labeled complexes between the anti-PAM antibody and activated platelets. Then the formation of the complex in the sample is determined (detected or measured). […] The blood-ACD mixture was centrifuged at 1000 r.p.m. for 10 minutes at room temperature. […] The PRP was then centrifuged at 3000 r.p.m. for 10 minutes. […] All cells were then divided into ten plastic capped tubes. Nine portions of washed platelets were incubated with 5 μfluorescein isothiocyanate (FITC)-conjugated antibodies in the dark at +4 °C for 30 minutes, and one part remained unstained and served as a negative control. Surface antigen expression was measured with monoclonal murine anti-human antibodies: CD9 (p24); CD41a (IIb/IIIa, aIIIbb3); CD42b (Ib); CD61(IIIa) (DAKO Corporation, Carpinteria Calif.); CD49b (VLA-2, or a2b1); CD62p (P-selectin); CD31 (PECAM-1); […] The instrument was calibrated daily with fluorescence beads (CaliBRITE; Becton Dickinson) and measured FITC-conjugated fluorescence intensity. All parameters were obtained using four decade logarithmic amplification. The data was collected and stored in list mode, and then analyzed using CELLQuest® (version 1.2.2) software. Procedures are described in detail in (Gurbel, P. […] Serebruany, V. […] Gurbel, P. A. et al., Coron Artery Dis 9: 451-456 (1998) and Serebruany, V. L. et al., Arterioscl Thromb Vasc Biol 19: 153-158 (1999)). The data in table 1 was obtained using the methods described herein, and in particular, in Examples 1 and 2. The levels of various PAMs were assess from samples of human volunteers."}, "[2]": {"test_system": "CD9", "description": "as §1"}, "[3]": {"test_system": "GP IIb/IIIa", "description": "as §1"}, "[4]": {"test_system": "GP IIIa", "description": "as §1"}, "[5]": {"test_system": "PECAM-1", "description": "as §1"}, "[6]": {"test_system": "GP Ib", "description": "as §1"}, "[7]": {"test_system": "GP IIb", "description": "as §1"}, "[8]": {"details": "healthy volunteers, desmethylsertraline 31.1 ng/ml"}, "[9]": {"details": "healthy volunteers, desmethylsertraline 143 ng/ml"}, "[10]": {"details": "post-angioplasty patient on aspirin, desmethylsertraline 31.1 ng/ml"}, "[11]": {"details": "post-angioplasty patient on aspirin, desmethylsertraline 64.2 ng/ml"}, "[12]": {"details": "post-angioplasty patient on aspirin, desmethylsertraline 143 ng/ml"}, "[13]": {"details": "healthy volunteers, desmethylsertraline 64.2 ng/ml"}}, "data": [{"smiles": "N[C@H]1CC[C@@H](c2ccc(Cl)c(Cl)c2)c2ccccc21", "note": "[Desmethyl sertraline, N-desmethylsertraline]", "values": [{"measurement": "CPIa-IIa (mean) log fluorescence intensity", "setting": "[1]; [8]", "result": 41}, {"measurement": "CPIa-IIa (peak) log fluorescence intensity", "setting": "[1]; [8]", "result": 42}, {"measurement": "CPIa-IIa (mean) log fluorescence intensity", "setting": "[1]; [9]", "result": 43}, {"measurement": "CPIa-IIa (peak) log fluorescence intensity", "setting": "[1]; [9]", "result": 40}, {"measurement": "CPIa-IIa (mean) log fluorescence intensity", "setting": "[1]; [10]", "result": 62}, {"measurement": "CPIa-IIa (peak) log fluorescence intensity", "setting": "[1]; [10]", "result": 59}, {"measurement": "CPIa-IIa (mean) log fluorescence intensity", "setting": "[1]; [11]", "result": 62}, {"measurement": "CPIa-IIa (peak) log fluorescence intensity", "setting": "[1]; [11]", "result": 53}, {"measurement": "CPIa-IIa (mean) log fluorescence intensity", "setting": "[1]; [12]", "result": 40}, {"measurement": "CPIa-IIa (peak) log fluorescence intensity", "setting": "[1]; [12]", "result": 48}, {"measurement": "CD9 (mean) log fluorescence intensity", "setting": "[2]; [8]", "result": 728}, {"measurement": "CD9 (peak) log fluorescence intensity", "setting": "[2]; [8]", "result": 620}, {"measurement": "CD9 (peak) log fluorescence intensity", "setting": "[2]; [13]", "result": 805}, {"measurement": "CD9 (mean) log fluorescence intensity", "setting": "[2]; [9]", "result": 837}, {"measurement": "CD9 (peak) log fluorescence intensity", "setting": "[2]; [9]", "result": 770}, {"measurement": "CD9 (mean) log fluorescence intensity", "setting": "[2]; [10]", "result": 908}, {"measurement": "CD9 (peak) log fluorescence intensity", "setting": "[2]; [10]", "result": 1046}, {"measurement": "CD9 (mean) log fluorescence intensity", "setting": "[2]; [11]", "result": 927}, {"measurement": "CD9 (peak) log fluorescence intensity", "setting": "[2]; [11]", "result": 930}, {"measurement": "CD9 (mean) log fluorescence intensity", "setting": "[2]; [12]", "result": 853}, {"measurement": "CD9 (peak) log fluorescence intensity", "setting": "[2]; [12]", "result": 850}, {"measurement": "GP IIb/IIIa (mean) log fluorescence intensity", "setting": "[3]; [8]", "result": 580}, {"measurement": "GP IIb/IIIa (peak) log fluorescence intensity", "setting": "[3]; [8]", "result": 457}, {"measurement": "GP IIb/IIIa (mean) log fluorescence intensity", "setting": "[3]; [13]", "result": 743}, {"measurement": "GP IIb/IIIa (peak) log fluorescence intensity", "setting": "[3]; [13]", "result": 649}, {"measurement": "GP IIb/IIIa (mean) log fluorescence intensity", "setting": "[3]; [9]", "result": 708}, {"measurement": "GP IIb/IIIa (peak) log fluorescence intensity", "setting": "[3]; [9]", "result": 509}, {"measurement": "GP IIb/IIIa (mean) log fluorescence intensity", "setting": "[3]; [10]", "result": 948}, {"measurement": "GP IIb/IIIa (peak) log fluorescence intensity", "setting": "[3]; [10]", "result": 791}, {"measurement": "GP IIb/IIIa (mean) log fluorescence intensity", "setting": "[3]; [11]", "result": 918}, {"measurement": "GP IIb/IIIa (peak) log fluorescence intensity", "setting": "[3]; [11]", "result": 777}, {"measurement": "GP IIb/IIIa (mean) log fluorescence intensity", "setting": "[3]; [12]", "result": 836}, {"measurement": "GP IIb/IIIa (peak) log fluorescence intensity", "setting": "[3]; [12]", "result": 716}, {"measurement": "GP IIIa (mean) log fluorescence intensity", "setting": "[4]; [8]", "result": 981}, {"measurement": "GP IIIa (peak) log fluorescence intensity", "setting": "[4]; [8]", "result": 913}, {"measurement": "GP IIIa (mean) log fluorescence intensity", "setting": "[4]; [13]", "result": 1178}, {"measurement": "GP IIIa (mean) log fluorescence intensity", "setting": "[4]; [9]", "result": 1182}, {"measurement": "GP IIIa (peak) log fluorescence intensity", "setting": "[4]; [9]", "result": 1046}, {"measurement": "GP IIIa (mean) log fluorescence intensity", "setting": "[4]; [10]", "result": 1235}, {"measurement": "GP IIIa (peak) log fluorescence intensity", "setting": "[4]; [10]", "result": 1298}, {"measurement": "GP IIIa (peak) log fluorescence intensity", "setting": "[4]; [11]", "result": 1144}, {"measurement": "GP IIIa (mean) log fluorescence intensity", "setting": "[4]; [12]", "result": 1259}, {"measurement": "GP IIIa (peak) log fluorescence intensity", "setting": "[4]; [12]", "result": 1219}, {"measurement": "PECAM-1 (mean) log fluorescence intensity", "setting": "[5]; [8]", "result": 74}, {"measurement": "PECAM-1 (peak) log fluorescence intensity", "setting": "[5]; [8]", "result": 60}, {"measurement": "PECAM-1 (mean) log fluorescence intensity", "setting": "[5]; [13]", "result": 101}, {"measurement": "PECAM-1 (mean) log fluorescence intensity", "setting": "[5]; [9]", "result": 81}, {"measurement": "PECAM-1 (peak) log fluorescence intensity", "setting": "[5]; [9]", "result": 74}, {"measurement": "PECAM-1 (mean) log fluorescence intensity", "setting": "[5]; [10]", "result": 94}, {"measurement": "PECAM-1 (peak) log fluorescence intensity", "setting": "[5]; [10]", "result": 83}, {"measurement": "PECAM-1 (mean) log fluorescence intensity", "setting": "[5]; [12]", "result": 90}, {"measurement": "PECAM-1 (peak) log fluorescence intensity", "setting": "[5]; [12]", "result": 84}, {"measurement": "GP Ib (mean) log fluorescence intensity", "setting": "[6]; [8]", "result": 146}, {"measurement": "GP Ib (peak) log fluorescence intensity", "setting": "[6]; [8]", "result": 94}, {"measurement": "GP Ib (mean) log fluorescence intensity", "setting": "[6]; [13]", "result": 299}, {"measurement": "GP Ib (peak) log fluorescence intensity", "setting": "[6]; [13]", "result": 266}, {"measurement": "GP Ib (mean) log fluorescence intensity", "setting": "[6]; [9]", "result": 309}, {"measurement": "GP Ib (peak) log fluorescence intensity", "setting": "[6]; [9]", "result": 336}, {"measurement": "GP Ib (mean) log fluorescence intensity", "setting": "[6]; [10]", "result": 167}, {"measurement": "GP Ib (peak) log fluorescence intensity", "setting": "[6]; [10]", "result": 165}, {"measurement": "GP Ib (mean) log fluorescence intensity", "setting": "[6]; [11]", "result": 198}, {"measurement": "GP Ib (peak) log fluorescence intensity", "setting": "[6]; [11]", "result": 167}, {"measurement": "GP Ib (mean) log fluorescence intensity", "setting": "[6]; [12]", "result": 222}, {"measurement": "GP Ib (peak) log fluorescence intensity", "setting": "[6]; [12]", "result": 201}, {"measurement": "GP IIb (mean) log fluorescence intensity", "setting": "[7]; [8]", "result": 33}, {"measurement": "GP IIb (peak) log fluorescence intensity", "setting": "[7]; [8]", "result": 31}, {"measurement": "GP IIb (peak) log fluorescence intensity", "setting": "[7]; [13]", "result": 31}, {"measurement": "GP IIb (mean) log fluorescence intensity", "setting": "[7]; [9]", "result": 30}, {"measurement": "GP IIb (peak) log fluorescence intensity", "setting": "[7]; [9]", "result": 35}, {"measurement": "GP IIb (mean) log fluorescence intensity", "setting": "[7]; [10]", "result": 24}, {"measurement": "GP IIb (peak) log fluorescence intensity", "setting": "[7]; [10]", "result": 21}, {"measurement": "GP IIb (mean) log fluorescence intensity", "setting": "[7]; [11]", "result": 22}, {"measurement": "GP IIb (mean) log fluorescence intensity", "setting": "[7]; [12]", "result": 29}, {"measurement": "GP IIb (peak) log fluorescence intensity", "setting": "[7]; [12]", "result": 25}]}]}
